In assay [1] the target is human DNA topoisomerase IIα (Homo sapiens, UniProt P11388). Put plainly: human DNA topoisomerase IIα inhibition. It is filed as biochemical. The note with it: read-out: RA (residual activity) Human topo IIα.
Assay [2] addresses E. coli DNA gyrase (Escherichia coli, UniProt P0AES6). Description: DNA gyrase supercoiling plate assay. The class given is biochemical. The note with it: for IC50: IC50 E. coli gyrase, supercoiling assay; for remaining activity at 1 µM / remaining activity at 0.1 µM: read-out: RA (residual activity) E. coli gyrase.
In assay [3] the target is E. coli topoisomerase IV (Escherichia coli, UniProt P20083). Description: topoisomerase IV relaxation plate assay. It is filed as biochemical.
Assay [4] concerns K. pneumoniae ATCC 700603. Description: MIC, broth microdilution. The class given is cell-based. The note with it: Klebsiella pneumoniae, ATCC700603, read-out: MIC K. pneumoniae ATCC 700603. (Broth dilution looks for growth in wells or tubes with falling amounts of substance.)
Assay [5] has as its system A. baumannii ATCC 19606. Put plainly: MIC, broth microdilution. The class given is cell-based. To be noted: Acinetobacter baumannii, ATCC19606, read-out: MIC A. baumannii ATCC 19606.
Assay [6] has as its system E. coli ATCC 25922. Description: MIC, broth microdilution. The class given is cell-based. To be noted: Escherichia coli, ATCC25922, read-out: MIC E. coli ATCC 25922.
Assay [7] concerns P. aeruginosa ATCC 27853. Description: MIC, broth microdilution. It is filed as cell-based. The note with it: Pseudomonas aeruginosa, ATCC27853, read-out: MIC P. aeruginosa ATCC 27853.
The subject of assay [8] is K. aerogenes ATCC 13408. Description: MIC, broth microdilution. The class given is cell-based. The note with it: Klebsiella aerogenes, ATCC13408, read-out: MIC K. aerogenes ATCC 13408.
Assay [9] relates to S. aureus ATCC 29213. Put plainly: MIC, broth microdilution. The class given is cell-based, Staphylococcus aureus. To be noted: Staphylococcus aureus, ATCC29213, read-out: MIC S. aureus ATCC 29213, broth microdilution.
The subject of assay [10] is E. faecalis ATCC 29212. Put plainly: MIC, broth microdilution. The class given is cell-based. To be noted: Enterococcus faecalis, ATCC29212, read-out: MIC E. faecalis ATCC 29212.
In assay [11] the test system is S. aureus ATCC 43300 (MRSA). Description: MIC, broth microdilution. The note with it: Staphylococcus aureus, ATCC43300|MRSA, read-out: MIC S. aureus ATCC 43300 (MRSA). It is filed as cell-based.
In assay [12] the test system is E. spp. cloacae ATCC 13047. Description: MIC, broth microdilution. To be noted: read-out: MIC E. spp. cloacae ATCC 13047. It is filed as cell-based.
In assay [13] the test system is K. pneumoniae ATCC 10031. Description: MIC, broth microdilution. The class given is cell-based. The note with it: Klebsiella pneumoniae, ATCC10031, read-out: MIC K. pneumoniae ATCC 10031.
The test system of assay [14] is A. baumannii ATCC 17978. Put plainly: MIC, broth microdilution. It is filed as cell-based. The note with it: Acinetobacter baumannii, ATCC17978, read-out: MIC A. baumannii ATCC 17978.
Setting [15] is: read-out: RA (residual activity) E. coli topo IV.

Converted amounts (≈) assume the structure as drawn. A value given as a limit tells only on which side of the number the result lay.

As a reminder, the IC50 is the concentration that gives 50% inhibition. The term MIC denotes the lowest concentration found to suppress growth.

E. coli topoisomerase IV, sequence (P20083 whole entry): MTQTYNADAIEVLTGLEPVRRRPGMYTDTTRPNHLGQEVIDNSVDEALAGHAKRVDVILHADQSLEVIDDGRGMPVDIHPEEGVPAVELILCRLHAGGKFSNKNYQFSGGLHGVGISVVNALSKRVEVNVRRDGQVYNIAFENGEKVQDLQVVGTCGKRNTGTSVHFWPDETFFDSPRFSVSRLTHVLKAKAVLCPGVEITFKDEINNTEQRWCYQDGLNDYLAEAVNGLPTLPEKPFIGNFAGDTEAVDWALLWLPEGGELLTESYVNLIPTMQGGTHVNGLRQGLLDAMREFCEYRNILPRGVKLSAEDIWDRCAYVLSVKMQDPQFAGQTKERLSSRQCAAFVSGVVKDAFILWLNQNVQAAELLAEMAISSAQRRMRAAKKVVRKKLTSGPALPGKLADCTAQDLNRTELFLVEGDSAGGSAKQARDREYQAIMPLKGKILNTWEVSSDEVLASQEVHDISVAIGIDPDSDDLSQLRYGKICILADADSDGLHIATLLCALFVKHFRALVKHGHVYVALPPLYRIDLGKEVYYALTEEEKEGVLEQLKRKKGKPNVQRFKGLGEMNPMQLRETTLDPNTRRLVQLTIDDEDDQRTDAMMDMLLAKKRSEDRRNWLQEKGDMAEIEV
E. coli topoisomerase IV, sequence (P0AFI2 whole entry partner): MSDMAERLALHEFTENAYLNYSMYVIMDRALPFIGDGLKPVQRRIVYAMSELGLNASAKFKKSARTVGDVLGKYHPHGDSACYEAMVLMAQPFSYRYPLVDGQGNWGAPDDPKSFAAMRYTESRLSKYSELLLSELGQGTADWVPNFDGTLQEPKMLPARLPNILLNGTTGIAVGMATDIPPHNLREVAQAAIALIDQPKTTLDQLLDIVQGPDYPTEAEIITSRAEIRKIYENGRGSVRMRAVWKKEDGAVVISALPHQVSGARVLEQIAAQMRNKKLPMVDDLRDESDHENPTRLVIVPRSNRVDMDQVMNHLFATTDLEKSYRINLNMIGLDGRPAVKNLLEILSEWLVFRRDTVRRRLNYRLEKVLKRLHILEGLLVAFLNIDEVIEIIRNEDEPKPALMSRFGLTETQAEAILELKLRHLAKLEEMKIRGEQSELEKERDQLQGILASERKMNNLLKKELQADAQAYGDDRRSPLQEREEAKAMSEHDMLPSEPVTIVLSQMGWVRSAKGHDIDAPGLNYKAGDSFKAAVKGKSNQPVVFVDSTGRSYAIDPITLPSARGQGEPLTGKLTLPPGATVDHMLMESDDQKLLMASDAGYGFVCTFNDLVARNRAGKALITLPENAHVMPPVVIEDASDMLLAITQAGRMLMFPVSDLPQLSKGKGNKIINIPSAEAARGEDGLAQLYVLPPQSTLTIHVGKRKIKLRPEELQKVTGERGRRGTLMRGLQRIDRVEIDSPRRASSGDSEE
human DNA topoisomerase IIα, sequence (P11388 whole entry): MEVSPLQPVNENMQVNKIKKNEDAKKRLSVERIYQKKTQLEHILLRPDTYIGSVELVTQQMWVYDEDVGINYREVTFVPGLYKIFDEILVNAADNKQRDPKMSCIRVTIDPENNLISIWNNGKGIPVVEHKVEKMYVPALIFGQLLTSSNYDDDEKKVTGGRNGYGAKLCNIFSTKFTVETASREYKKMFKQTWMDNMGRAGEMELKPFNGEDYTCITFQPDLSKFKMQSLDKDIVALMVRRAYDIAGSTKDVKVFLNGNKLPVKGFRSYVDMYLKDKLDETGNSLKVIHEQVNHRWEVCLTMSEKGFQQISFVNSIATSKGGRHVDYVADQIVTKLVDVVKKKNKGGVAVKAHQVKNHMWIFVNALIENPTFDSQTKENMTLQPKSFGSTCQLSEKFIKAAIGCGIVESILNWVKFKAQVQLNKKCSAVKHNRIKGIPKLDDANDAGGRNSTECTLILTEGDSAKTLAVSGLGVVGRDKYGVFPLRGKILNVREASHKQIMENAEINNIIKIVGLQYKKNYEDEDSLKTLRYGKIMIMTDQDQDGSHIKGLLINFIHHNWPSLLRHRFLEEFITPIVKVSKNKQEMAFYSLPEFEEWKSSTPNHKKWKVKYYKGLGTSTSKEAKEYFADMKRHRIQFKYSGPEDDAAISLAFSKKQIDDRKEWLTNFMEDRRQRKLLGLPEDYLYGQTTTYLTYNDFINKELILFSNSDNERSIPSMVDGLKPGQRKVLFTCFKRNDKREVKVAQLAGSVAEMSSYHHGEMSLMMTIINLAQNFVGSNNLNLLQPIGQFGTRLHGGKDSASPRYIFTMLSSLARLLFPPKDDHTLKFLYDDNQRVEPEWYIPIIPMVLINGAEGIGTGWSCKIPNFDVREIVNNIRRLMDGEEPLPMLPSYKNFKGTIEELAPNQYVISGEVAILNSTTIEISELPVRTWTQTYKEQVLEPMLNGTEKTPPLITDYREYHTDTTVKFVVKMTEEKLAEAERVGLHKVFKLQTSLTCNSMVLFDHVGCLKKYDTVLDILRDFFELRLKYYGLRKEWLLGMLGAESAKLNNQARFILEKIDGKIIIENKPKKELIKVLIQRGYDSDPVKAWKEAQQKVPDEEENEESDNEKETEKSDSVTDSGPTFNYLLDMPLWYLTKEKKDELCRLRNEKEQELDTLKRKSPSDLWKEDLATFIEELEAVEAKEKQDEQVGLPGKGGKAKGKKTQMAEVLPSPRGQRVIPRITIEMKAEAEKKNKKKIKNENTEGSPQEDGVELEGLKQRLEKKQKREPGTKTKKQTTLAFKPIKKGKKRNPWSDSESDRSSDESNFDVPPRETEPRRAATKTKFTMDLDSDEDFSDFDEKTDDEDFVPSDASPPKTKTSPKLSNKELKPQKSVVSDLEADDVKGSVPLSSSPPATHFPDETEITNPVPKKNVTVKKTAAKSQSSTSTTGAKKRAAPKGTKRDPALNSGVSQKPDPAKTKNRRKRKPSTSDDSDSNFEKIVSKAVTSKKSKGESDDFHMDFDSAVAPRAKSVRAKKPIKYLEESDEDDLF

Turning to `O=C(O)CNC(=O)c1ccc(NC(=O)c2cc(Br)c(Br)[nH]2)c(N2CCNCC2)c1` [Compound 11a, 4-(5-((Carboxymethyl)carbamoyl)-2-(4,5-dibromo-1H-pyrrole-2-carboxamido)phenyl)piperazin-1-ium chloride], in [1], the remaining activity at 40 µM is 100%.
Consider `Cc1[nH]c(C(=O)Nc2ccc(C(=O)NCc3n[nH]c(=O)o3)cc2N2CCNCC2)c(Cl)c1Cl` [Compound 14, 4-(2-(3,4-Dichloro-5-methyl-1H-pyrrole-2-carboxamido)-5-(((5-oxo-4,5-dihydro-1,3,4-oxadiazol-2-yl)methyl)carbamoyl)phenyl)piperazin-1-ium chloride], for which, in assay [1], the remaining activity at 10 µM is 111%. Besides, the IC50 in assay [2] is approximately 0.02 µM.
For the compound `CC(C)(C)OC(=O)N[C@H]1CCN(c2cc(C(=O)NCC(=O)O)ccc2NC(=O)c2cc(Br)c(Br)[nH]2)C1` [Compound 9b, (S)-(3-(3-((tert-Butoxycarbonyl)amino)pyrrolidin-1-yl)-4-(4,5-dibromo-1H-pyrrole-2-carboxamido)benzoyl)glycine], half-maximal inhibition in assay [2] (IC50) was put at 4.11 µM.
The same measure, in the same setting: next, `N[C@H]1CCN(c2cc(C(=O)NCC(=O)O)ccc2NC(=O)c2cc(Br)c(Br)[nH]2)C1` [Compound 11b, (S)-1-(5-((Carboxymethyl)carbamoyl)-2-(4,5-dibromo-1H-pyrrole-2-carboxamido)phenyl)pyrrolidin-3-aminium chloride]: 0.235 µM; `Cc1[nH]c(C(=O)Nc2ccc(C(=O)NCC(=O)O)cc2N2CC[C@@H](NC(=O)OC(C)(C)C)C2)c(Cl)c1Cl` [Compound 8c, (R)-(3-(3-((tert-Butoxycarbonyl)amino)pyrrolidin-1-yl)-4-(3,4-dichloro-5-methyl-1H-pyrrole-2-carboxamido)benzoyl)glycine]: 0.162 µM.
Consider `Cc1[nH]c(C(=O)Nc2ccc(-c3n[nH]c(=O)o3)cc2N2CCN(C(=O)OC(C)(C)C)CC2)c(Cl)c1Cl` [Compound 22a, tert-Butyl 4-(2-(3,4-dichloro-5-methyl-1H-pyrrole-2-carboxamido)-5-(5-oxo-4,5-dihydro-1,3,4-oxadiazol-2-yl)phenyl)piperazine-1-carboxylate], for which the remaining activity at 100 µM in [1] is 100%. The compound also came in with an IC50 in assay [2] of 0.059 µM. Moreover, the remaining activity at 1 µM in assay [3] (setting [15]) is 104%.
As for `Cc1[nH]c(C(=O)Nc2ccc(C(=O)NCC(=O)O)cc2N2CCNCC2)c(Cl)c1Cl` [Compound 10a, 4-(5-((Carboxymethyl)carbamoyl)-2-(3,4-dichloro-5-methyl-1H-pyrrole-2-carboxamido)phenyl)piperazin-1-ium chloride], the remaining activity at 10 µM in assay [1] was 78%. Further, the remaining activity at 1 µM in assay [3] (setting [15]) came out at 93%.
Regarding `Cc1[nH]c(C(=O)Nc2ccc(C(=O)O)cc2N2CCC[C@H](NC(=O)OC(C)(C)C)C2)c(Cl)c1Cl` [Compound 18c, (S)-3-(3-((tert-Butoxycarbonyl)amino)piperidin-1-yl)-4-(3,4-dichloro-5-methyl-1H-pyrrole-2-carboxamido)benzoic acid], the MIC in [4], in assay [5], in assay [6], in assay [7] and in assay [8] was more than 32 mg/L throughout. Besides, in assay [2], the remaining activity at 1 µM amounted to 67%.
For `CC(C)(C)OC(=O)N[C@@H]1CCN(c2cc(C(=O)NCC(=O)O)ccc2NC(=O)c2cc(Br)c(Br)[nH]2)C1` [Compound 9c, (R)-(3-(3-((tert-Butoxycarbonyl)amino)pyrrolidin-1-yl)-4-(4,5-dibromo-1H-pyrrole-2-carboxamido)benzoyl)glycine], in assay [2], it took 5.39 µM to reach half-maximal inhibition (IC50).
With `Cc1[nH]c(C(=O)Nc2ccc(-c3n[nH]c(=O)o3)cc2N2CCC[C@H](NC(=O)OC(C)(C)C)C2)c(Cl)c1Cl` [Compound 22c, tert-Butyl (S)-(1-(2-(3,4-dichloro-5-methyl-1H-pyrrole-2-carboxamido)-5-(5-oxo-4,5-dihydro-1,3,4-oxadiazol-2-yl)phenyl)piperidin-3-yl)carbamate], the MIC in [4] was more than 32 mg/L; in assay [9] it was 32 mg/L (≈ 58 µM); in assay [5], more than 32 mg/L; in [6], more than 32 mg/L; in assay [7], more than 32 mg/L; in [8], more than 32 mg/L. In addition, in [2], the remaining activity at 0.1 µM turned out to be 90%.
Regarding “4,5-Dibromo-N-(2-morpholino-4-(5-oxo-4,5-dihydro-1,3,4-oxadiazol-2-yl)phenyl)-1H-pyrrole-2-carboxamide [Compound 27a]”, in assay [2] (at 10 μM compound), the “RA (residual activity) E. coli gyrase” value is 98% (10 μM). Moreover, the “RA (residual activity) E. coli topo IV” value in assay [3] (at 1 μM compound) is 103% (1 μM).
`CC(C)(C)OC(=O)N1CCN(c2cc(C(=O)NCC(=O)O)ccc2NC(=O)c2cc(Br)c(Br)[nH]2)CC1` [Compound 9a, (3-(4-(tert-Butoxycarbonyl)piperazin-1-yl)-4-(4,5-dibromo-1H-pyrrole-2-carboxamido)benzoyl)glycine] came in with an IC50 in assay [2] of 0.362 µM. That is a sub-micromolar value.
Turning to `Cc1[nH]c(C(=O)N(Cc2ccccc2)c2ccc(-c3n[nH]c(=O)o3)cc2)c(Cl)c1Cl` [Compound 33, N-Benzyl-3,4-dichloro-5-methyl-N-(4-(5-oxo-4,5-dihydro-1,3,4-oxadiazol-2-yl)phenyl)-1H-pyrrole-2-carboxamide], in assay [1], the remaining activity at 100 µM came to 92%. Further, in assay [2], the remaining activity at 1 µM is 81%.
As for `N[C@@H]1CCN(c2cc(C(=O)NCC(=O)O)ccc2NC(=O)c2cc(Br)c(Br)[nH]2)C1` [Compound 11c, (R)-1-(5-((Carboxymethyl)carbamoyl)-2-(4,5-dibromo-1H-pyrrole-2-carboxamido)phenyl)pyrrolidin-3-aminium chloride], the IC50 in assay [2] turned out to be 0.996 µM. In addition, the remaining activity at 10 µM in assay [3] (setting [15]) came to 75%.
For `Cc1[nH]c(C(=O)Nc2ccc(C(=O)NCC(=O)O)cc2N2CC[C@@H](N)C2)c(Cl)c1Cl` [Compound 10c, (R)-1-(5-((Carboxymethyl)carbamoyl)-2-(3,4-dichloro-5-methyl-1H-pyrrole-2-carboxamido)phenyl)pyrrolidin-3-aminium chloride], the remaining activity at 40 µM in assay [1] was determined as 112%. The half-inhibitory concentration (IC50) in assay [2] was approximately 0.02 µM.
`Cc1[nH]c(C(=O)Nc2ccc(C(=O)O)cc2N2CCCC(CNC(=O)OC(C)(C)C)C2)c(Cl)c1Cl` (stereo not drawn) [Compound 18i, 3-(3-(((tert-Butoxycarbonyl)amino)methyl)piperidin-1-yl)-4-(3,4-dichloro-5-methyl-1H-pyrrole-2-carboxamido)benzoic acid]: the MIC in assay [4], in assay [5], in assay [6], in assay [7] and in [8] was more than 32 mg/L throughout. The remaining activity at 100 µM in assay [1] is 128%. For the same compound, the remaining activity at 0.1 µM in [2] is 89%.
For `Cc1[nH]c(C(=O)Nc2ccc(C(=O)NCc3n[nH]c(=O)o3)cc2N2CCN(C(=O)OC(C)(C)C)CC2)c(Cl)c1Cl` [Compound 13, tert-Butyl 4-(2-(3,4-dichloro-5-methyl-1H-pyrrole-2-carboxamido)-5-(((5-oxo-4,5-dihydro-1,3,4-oxadiazol-2-yl)methyl)carbamoyl)phenyl)piperazine-1-carboxylate], the MIC in assay [9] was determined as 1 mg/L (≈ 1.68 µM). The compound also yielded an IC50 in assay [2] of 0.483 µM.
On to `Cc1[nH]c(C(=O)Nc2ccc(C(=O)NCC(=O)O)cc2N2CC[C@H](NC(=O)OC(C)(C)C)C2)c(Cl)c1Cl` [Compound 8b, (S)-(3-(3-((tert-Butoxycarbonyl)amino)pyrrolidin-1-yl)-4-(3,4-dichloro-5-methyl-1H-pyrrole-2-carboxamido)benzoyl)glycine], for which it took 0.196 µM to reach half-maximal inhibition in assay [2] (IC50).
Regarding `Cc1[nH]c(C(=O)Nc2ccc(-c3n[nH]c(=O)o3)cc2N2CCOC(C)C2)c(Cl)c1Cl` (stereo not drawn) [Compound 22f, 3,4-Dichloro-5-methyl-N-(2-(2-methylmorpholino)-4-(5-oxo-4,5-dihydro-1,3,4-oxadiazol-2-yl)phenyl)-1H-pyrrole-2-carboxamide], the MIC in assay [10] was 1 mg/L (≈ 2.21 µM); in assay [9] it was more than 64 mg/L; in [11] it was more than 64 mg/L; in [12] it was more than 64 mg/L; in assay [6], more than 64 mg/L; in assay [13], more than 64 mg/L. For the same compound, the MIC in [7] and in assay [14] was more than 64 mg/L in each case. Moreover, the remaining activity at 100 µM in assay [1] is 98%.
With `Cc1[nH]c(C(=O)Nc2ccc(-c3n[nH]c(=O)o3)cc2N2CC(C)OC(C)C2)c(Cl)c1Cl` (stereo not drawn) [Compound 22g, 3,4-Dichloro-N-(2-(2,6-dimethylmorpholino)-4-(5-oxo-4,5-dihydro-1,3,4-oxadiazol-2-yl)phenyl)-5-methyl-1H-pyrrole-2-carboxamide], the remaining activity at 100 µM in assay [1] was 97%.
